Experimental data from patent publication US11912652B1, “8-(2-hydroxybenzylideneamino)naphthalene-1,3-disulfonic acid as an antioxidant compound” (KING FAISAL UNIVERSITY, priority 2023, dated 2024).

Assay: DPPH (2,2-diphenyl-1-picrylhydrazyl) radical scavenging antioxidant test
Assay type: biochemical
Details: 517 nm; for Inhibition (radical scavenging inhibition): 0.2 mL DPPH (0.75 mM), compound 3 μM in ethanol, 30 minutes in the dark
Protocol: The antioxidant properties of the 8-(2-hydroxybenzylideneamino)naphthalene-1,3-disulfonic acid compound were studied by adding 0.2 mL DPPH (0.75 mM)) to 8-(2-hydroxybenzylideneamino)naphthalene-1,3-disulfonic acid (III) (3 μM) in ethanol. After 30 minutes of incubation in the dark, the absorbance was read against a blank at 517 nm. Ascorbic acid (vitamin C) was used as standard antioxidants (positive control). A blank sample was prepared by 0.2 ml of DPPH in 3 mL ethanol. A negative control sample was run using ethanol instead of the sample. The radical scavenging inhibition was calculated using the following equation: […]
The antioxidant activity for the synthesized compound is listed in Table 1, using Vitamin C as a reference.

Question: For `O=S(=O)(O)c1cc(S(=O)(=O)O)c2c(/N=C/c3ccccc3O)cccc2c1` [Product III, 8-(2-hydroxybenzylideneamino)naphthalene-1,3-disulfonic acid], which “Inhibition (radical scavenging inhibition)” value is on record?
Answer: 54%

Question: And the “antioxidant potential compared to vitamin C (in words)” value (DPPH in vitro test, vitamin C as positive control)?
Answer: high potential as an antioxidant

Question: Which “Inhibition (radical scavenging inhibition)” value does the source give for `O=C1O[C@H]([C@@H](O)CO)C(O)=C1O` [vit c, Ascorbic acid, reference compound] here?
Answer: 74%
